How the values were obtained:
Assay in all cases: relative viability (nuclei count vs DMSO), 5 days (fraction); higher = more cells survive
[1] = compound: COC1=C(C=C(C=C1)C2=CC3=NC=CN3C(=N2)NC4=C(C=CC=N4)C(=O)N)OC [BAY61-3606] + Nc1ncn([C@H]2C[C@H](O)[C@@H](CO)O2)c(=O)n1 [Decitabine] (partner 2 µM)
Summary of the method: (§1)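 Dosing by pin tool came one day after lung cancer cell lines were seeded in 1536-well plates, using either one drug or a fixed anchor-drug dose plus five library-drug doses (not always all listed) in √10 steps. After 5 days, nuclei were counted on 4× images. Relative viability is treated-well nuclei count divided by vehicle-well nuclei count, and values are medians of duplicate plates.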

[2] = compound: COc1cccc2c1C(=O)c1c(O)c3c(c(O)c1C2=O)C[C@@](O)(C(=O)CO)C[C@@H]3O[C@H]1C[C@H](N)[C@H](O)[C@H](C)O1 [Doxorubicin] + C[C@@H](Oc1cc(-c2cnn(C3CCNCC3)c2)cnc1N)c1c(Cl)ccc(F)c1Cl [Crizotinib] (partner 1 µM)
Summary of the method: as §1

[3] = compound: COC1=C(C=C(C=C1)C2=CC3=NC=CN3C(=N2)NC4=C(C=CC=N4)C(=O)N)OC [BAY61-3606] + CS(=O)(=O)N1CCN(Cc2cc3nc(-c4cccc5[nH]ncc45)nc(N4CCOCC4)c3s2)CC1 [Pictilisib] (partner 1 µM)
Summary of the method: as §1

[4] = compound: COc1cccc2c1C(=O)c1c(O)c3c(c(O)c1C2=O)C[C@@](O)(C(=O)CO)C[C@@H]3O[C@H]1C[C@H](N)[C@H](O)[C@H](C)O1 [Doxorubicin] + CC(=O)Nc1cccc(-n2c(=O)n(C3CC3)c(=O)c3c(Nc4ccc(I)cc4F)n(C)c(=O)c(C)c32)c1 [Trametinib] (partner 0.02 µM)
Summary of the method: as §1

Which relative viability ([1]; first compound 0.02 µM) does the source give for UMC-11 here?
Its relative viability is 0.65.

What about the relative viability ([1]; first compound 0.06325 µM) of the same cell line?
The relative viability was 0.476.

What about the relative viability ([1]; first compound 0.2 µM) of the same cell line?
The relative viability was 0.601.

And the relative viability ([1]; first compound 0.6325 µM)?
The relative viability was 0.597.

And the relative viability ([1]; first compound 2 µM)?
The relative viability was 0.548.

What about the relative viability ([2]; first compound 0.001 µM) of the same cell line?
Its relative viability is 0.539.

What about the relative viability ([2]; first compound 0.003162 µM) of the same cell line?
Its relative viability is 0.66.

And the relative viability ([2]; first compound 0.01 µM)?
Its relative viability is 0.648.

What about the relative viability ([2]; first compound 0.03162 µM) of the same cell line?
Its relative viability is 0.309.

And the relative viability ([2]; first compound 0.1 µM)?
The relative viability was 0.386.

What about the relative viability ([3]; first compound 0.02 µM) of the same cell line?
The relative viability was 0.851.

And the relative viability ([3]; first compound 0.06325 µM)?
The relative viability was 0.799.

And the relative viability ([3]; first compound 0.2 µM)?
The relative viability was 0.527.

What about the relative viability ([3]; first compound 0.6325 µM) of the same cell line?
Its relative viability is 0.922.

What about the relative viability ([3]; first compound 2 µM) of the same cell line?
Its relative viability is 0.622.

What about the relative viability ([4]; first compound 0.001 µM) of the same cell line?
The relative viability was 0.948.

And the relative viability ([4]; first compound 0.003162 µM)?
The relative viability was 0.761.

And the relative viability ([4]; first compound 0.01 µM)?
The relative viability was 0.768.

And the relative viability ([4]; first compound 0.03162 µM)?
The relative viability was 0.366.

And the relative viability ([4]; first compound 0.1 µM)?
Its relative viability is 0.442.

Reference: the supplement of paper PMC10307832
